Test: in vitro
Conditions: PAMPA; for Papp at 0.5 mg/mL: pig, pH 7.4
Description: Effective permeability values (Pe) are calculated by monitoring accumulation of the organic molecule in a cross-membrane compartment. […] M+/M− refers to the fraction of compound that crossed the BBB-mimic membrane as compared to system with no membrane after 16 hour incubation at room temperature. Values are means of three replicates.
Membrane permeability assay. The membrane permeability assays were carried out adapting a described procedure and using 96-well MultiScreen-IP plates from Millipore. Filter plates were rinsed with 70% EtOH and double-distilled water prior to use. BBB-mimic membranes were prepared by coating filter wells with 5 μL porcine brain lipids (PBL, Avanti Polar Lipids) in dodecane (20 mg/mL). Control wells (PBL-free) were primed in the same way but not coated with PBL. Working solutions contained 0.5 mg/mL fluorinated compound in PBS pH 7.4 (5% EtOH). Assembled plates contained 150 μL working solution in the PBL-coated (or PBL-free) well, 300 μL PBS (5% EtOH) in the acceptor well, and were incubated at room temperature and 100% humidity. The change in organic compound concentration in the donor and acceptor wells was monitored over time by HPLC. Membrane permeability values (Pe) were calculated. All measurements were performed in triplicates. The assay was validated by comparing the experimental Pe value for caffeine with that reported in the art.
Ibuprofen has recently shown promising activity against amyloidogenic diseases. Anti-amyloidogenic drugs with high brain permeability are intensively sought after. Compounds 15, 16 and 18 were tested in a membrane permeability assay that mimics the composition of the blood-brain barrier (BBB).

Structure (SMILES)	Papp at 0.5 mg/mL [×10⁻⁶ cm/s]	Membrane permeability properties / BBB-crossing potential (in words)
Cn1c(=O)c2c(ncn2C)n(C)c1=O [Caffeine, reference compound]	1.24	
COC(=O)C(C)c1ccc(CC(C)C)cc1 (centres unmarked) [Compound 12, 2-(4-Isobutyl-phenyl)-propionic acid methyl ester, reference compound]		modest BBB-crossing potential

Next, values leading:

Papp at 0.5 mg/mL [×10⁻⁶ cm/s]	Membrane permeability properties / BBB-crossing potential (in words)	Structure (SMILES)
> 10	very good	COC(=O)C(C)c1ccc(CC(C)(C)F)cc1 (centres unmarked) [Compound 16, 2-[4-(2-Fluoro-2-methyl-propyl)-phenyl]-propionic acid methyl ester]
> 10	excellent	COC(=O)C(C)c1ccc(C(F)C(C)(C)F)cc1 (centres unmarked) [Compound 18, 2-[4-(1,2-Difluoro-2-methyl-propyl)-phenyl]-propionic acid methyl ester]
> 10	very good	COC(=O)C(C)c1ccc(C(F)C(C)C)cc1 (centres unmarked) [Compound 15, 2-[4-(1-Fluoro-2-methyl-propyl)-phenyl]-propionic acid methyl ester]

Reference: patent US8252559B2, “Methods and systems for selective fluorination of organic molecules” (The California Institute of Technology, priority 2006, dated 2012)
